According to ChEMBL document CHEMBL4265910, “(E)-N-Aryl-2-oxo-2-(3,4,5-trimethoxyphenyl)acetohydrazonoyl cyanides as tubulin polymerization inhibitors: Structure-based bioisosterism design, synthesis, biological evaluation, molecular docking and in silico ADME prediction” (Bioorg Med Chem Lett, 2018):
Blank lines part the entries; values can stand above or below the compound they belong to.

Columns and labels:
HepG2 [1] = experiment: Antiproliferative activity against human HepG2 cells after 72 hrs by MTT assay; format: functional, cell-based; conditions: HepG2, 72 h
B16-F10 = experiment: Antiproliferative activity against mouse B16F10 cells after 72 hrs by MTT assay; format: functional, cell-based; conditions: B16-F10, 72 h
HepG2 [2] = experiment: Cell cycle arrest in human HepG2 cells assessed as accumulation at G1 phase at 0.25 uM after 24 hrs by RNase A/propidium iodide staining-based flow cytometric analysis (reference value: 50.61%); format: functional
Sus scrofa = species on record: Sus scrofa; experiment: (§1) Inhibition of tubulin polymerization in porcine brain assessed as disruption of tubulin assembly by spectrophotometric analysis
[3] = as §1; parameters: species or system Sus scrofa
HepG2 [4] = experiment: Cell cycle arrest in human HepG2 cells assessed as accumulation at G2/M phase after 24 hrs by RNase A/propidium iodide staining-based flow cytometric analysis; format: functional
HepG2 [5] = experiment: Cell cycle arrest in human HepG2 cells assessed as accumulation at G2/M phase at 0.25 uM after 24 hrs by RNase A/propidium iodide staining-based flow cytometric analysis (reference value: 21.09%); format: functional
MDA-MB-231 = experiment: Antiproliferative activity against human MDA-MB-231 cells after 72 hrs by MTT assay; format: functional, cell-based; conditions: MDA-MB-231, 72 h
[6] = Antiproliferative activity against human HCT8/T cells after 72 hrs by MTT assay; format: functional, cell-based; conditions: HCT-8, 72 h
HeLa = experiment: Antiproliferative activity against human HeLa cells after 72 hrs by MTT assay; format: functional, cell-based
HCT-116 = experiment: Antiproliferative activity against human HCT116 cells after 72 hrs by MTT assay; format: functional, cell-based; conditions: HCT-116, 72 h
HepG2 [7] = experiment: Cell cycle arrest in human HepG2 cells assessed as accumulation at S phase at 0.25 uM after 24 hrs by RNase A/propidium iodide staining-based flow cytometric analysis (reference value: 28.30%); format: functional
MCF7 [8] = experiment: Antiproliferative activity against human MCF7 cells after 72 hrs by MTT assay; format: functional, cell-based; conditions: MCF7, 72 h
DU-145 = experiment: Antiproliferative activity against human DU145 cells after 72 hrs by MTT assay; format: functional, cell-based; conditions: DU-145, 72 h
HepG2 [9] = experiment: Cell cycle arrest in human HepG2 cells assessed as accumulation at G1 phase at 0.5 uM after 24 hrs by RNase A/propidium iodide staining-based flow cytometric analysis (reference value: 50.61%); format: functional
HepG2 [10] = experiment: Cell cycle arrest in human HepG2 cells assessed as accumulation at G2/M phase at 0.5 uM after 24 hrs by RNase A/propidium iodide staining-based flow cytometric analysis (reference value: 21.09%); format: functional
HepG2 [11] = experiment: Cell cycle arrest in human HepG2 cells assessed as accumulation at S phase at 0.5 uM after 24 hrs by RNase A/propidium iodide staining-based flow cytometric analysis (reference value: 28.30%); format: functional
MCF7 [12] = experiment: Antiproliferative activity against human MCF7 cells; format: functional, cell-based
A549 = experiment: Antiproliferative activity against human A549 cells; format: functional, cell-based
HepG2 [13] = experiment: Antiproliferative activity against human HepG2 cells; format: functional, cell-based
CHL-1 = experiment: Antiproliferative activity against human CHL-1 cells; format: functional, cell-based
SK-OV-3 = experiment: Antiproliferative activity against human SKOV3 cells; format: functional, cell-based
A2780S = experiment: Antiproliferative activity against human A2780S cells; format: functional, cell-based
HT-29 = experiment: Antiproliferative activity against human HT-29 cells; format: functional, cell-based

Compound: COc1ccc(N/N=C(\C#N)C(=O)c2cc(OC)c(OC)c(OC)c2)cc1O
IC50 (HepG2 [1]): 320 nM
IC50 (B16-F10): 2110 nM
Activity (HepG2 [2]): 4.09%
inhibition (Sus scrofa): Dose-dependent effect
IC50 [3]: 900 nM
Activity (HepG2 [4]): Dose-dependent effect
Activity (HepG2 [5]): 78.89%
IC50 (MDA-MB-231): 720 nM
IC50 [6]: 3960 nM
IC50 (HeLa): 81 nM
IC50 (HCT-116): 810 nM
Activity (HepG2 [7]): 17.01%
IC50 (MCF7 [8]): 260 nM
IC50 (DU-145): 77 nM
Activity (HepG2 [9]): 0.45%
Activity (HepG2 [10]): 94.12%
Activity (HepG2 [11]): 5.43%

Compound: COc1cc(N/N=C(\C#N)C(=O)c2cc(OC)c(OC)c(OC)c2)cc(OC)c1OC
IC50 (HepG2 [1]): > 10000 nM
IC50 (MCF7 [8]): > 10000 nM

Compound: CCOc1ccc(N/N=C(\C#N)C(=O)c2cc(OC)c(OC)c(OC)c2)cc1
IC50 (HepG2 [1]): 6620 nM
IC50 (MCF7 [8]): 7010 nM

Compound: COc1ccc(N/N=C(\C#N)C(=O)c2cc(OC)c(OC)c(OC)c2)cc1
IC50 (HepG2 [1]): 440 nM
IC50 (B16-F10): 3260 nM
IC50 (MDA-MB-231): 2460 nM
IC50 [6]: 4620 nM
IC50 (HeLa): 220 nM
IC50 (HCT-116): 3190 nM
IC50 (MCF7 [8]): 280 nM
IC50 (DU-145): 120 nM

Compound: CCOc1ccccc1N/N=C(\C#N)C(=O)c1cc(OC)c(OC)c(OC)c1
IC50 (HepG2 [1]): > 10000 nM
IC50 (MCF7 [8]): > 10000 nM

Compound: COc1cc(C(=O)/C(C#N)=N/Nc2ccc([N+](=O)[O-])cc2)cc(OC)c1OC
IC50 (HepG2 [1]): > 10000 nM
IC50 (MCF7 [8]): > 10000 nM

Compound: COc1cc2c(c(OC)c1OC)-c1ccc(OC)c(=O)cc1[C@@H](NC(C)=O)CC2 [COLCHICINE]
IC50 (B16-F10): 44.2 nM
IC50 (MDA-MB-231): 77.6 nM
IC50 [6]: 227 nM
IC50 (HeLa): 8.89 nM
IC50 (HCT-116): 26.2 nM
IC50 (DU-145): 3.45 nM

Compound: COc1cc(C(=O)/C(C#N)=N/Nc2ccccc2F)cc(OC)c1OC
IC50 (HepG2 [1]): 2100 nM
IC50 (MCF7 [8]): 1690 nM

Compound: COc1cc(C(=O)/C(C#N)=N/Nc2ccc(Cl)cc2Cl)cc(OC)c1OC
IC50 (HepG2 [1]): > 10000 nM
IC50 (MCF7 [8]): > 10000 nM

Compound: COc1cc(C(=O)/C(C#N)=N/Nc2cccc(C)c2)cc(OC)c1OC
IC50 (HepG2 [1]): 6110 nM
IC50 (MCF7 [8]): 5890 nM

Further lines, with some results ahead:

IC50 (HepG2 [1]): 9710 nM
IC50 (MCF7 [8]): 9840 nM
Compound: COc1cc(C(=O)/C(C#N)=N/Nc2ccc(F)cc2)cc(OC)c1OC

IC50 (HepG2 [1]): 6460 nM
IC50 (MCF7 [8]): 8820 nM
Compound: COc1cccc(N/N=C(\C#N)C(=O)c2cc(OC)c(OC)c(OC)c2)c1

IC50 (HepG2 [1]): 1380 nM
IC50 (MCF7 [12]): 1840 nM
IC50 (A549): 2090 nM
IC50 (HepG2 [13]): 1200 nM
IC50 (MCF7 [8]): 1930 nM
IC50 (SK-OV-3): 1270 nM
IC50 (A2780S): 1880 nM
IC50 (HT-29): 1280 nM
Compound: COc1ccc(N/C=C(\C#N)C(=O)c2cc(OC)c(OC)c(OC)c2)cc1
IC50 (CHL-1): 1220 nM

IC50 (HepG2 [1]): 5190 nM
IC50 (MCF7 [8]): 6380 nM
Compound: COc1cc(C(=O)/C(C#N)=N/Nc2ccccc2)cc(OC)c1OC

IC50 (HepG2 [1]): 2680 nM
IC50 (MCF7 [8]): 3020 nM
Compound: COc1cc(C(=O)/C(C#N)=N/Nc2ccc(C(F)(F)F)cc2)cc(OC)c1OC

IC50 (HepG2 [1]): 610 nM
IC50 (B16-F10): 2230 nM
IC50 (MDA-MB-231): 2240 nM
IC50 (HeLa): 310 nM
IC50 (HCT-116): 870 nM
IC50 (MCF7 [8]): 430 nM
IC50 (DU-145): 98 nM
Compound: COc1cc(C(=O)/C(C#N)=N/Nc2ccc(C)cc2)cc(OC)c1OC
IC50 [6]: 7640 nM
